Source: patent US10159671B2, “Compositions of multiple aripiprazole prodrugs” (ALKERMES PHARMA IRELAND LIMITED, priority 2016, dated 2018)

What was measured:
[1] = Solubility in a solution comprising 1.5% (w/w) polysorbate 20; assay type: physicochemical; settings: aqueous solution with 1.5% (w/w) polysorbate 20, aqueous with cosolvent or surfactant or cyclodextrin; 1.5% (w/w) polysorbate 20 at 40° C., pH 7
Source text: These represent significant differences in the water solubility of the aforementioned prodrugs.

Solubility in water = assay type: physicochemical
Procedure: The present invention combines particle populations of at least two distinct aripiprazole prodrugs. In a preferred embodiment the composition comprises a particle population of aripiprazole lauroxil and aripiprazole cavoxil particles. The physical and chemical properties of the aripiprazole prodrugs within the scope of the present invention can vary considerably. For instance, aripiprazole cavoxil was determined to have a solubility in water of less than about 1 μg/ml, whereas aripiprazole lauroxil was determined to have a solubility of less than about 4 ng/mL.

SMILES	solubility [1]	solubility (Solubility in water)
CCCCCC(=O)OCN1C(=O)CCc2ccc(OCCCCN3CCN(c4cccc(Cl)c4Cl)CC3)cc21 [aripiprazole cavoxil, (7-(4-(4-(2,3-Dichlorophenyl)piperazin-1-yl)butoxy)-2-oxo-3,4-dihydroquinolin-1(2H)yl)methyl hexanoate]	< 50 µg/mL	< 1 µg/mL
CCCCCCCCCCCC(=O)OCN1C(=O)CCc2ccc(OCCCCN3CCN(c4cccc(Cl)c4Cl)CC3)cc21 [aripiprazole lauroxil, Dodecanoic acid, [7-[4-[4-(2,3-dichlorophenyl)-1-piperazinyl]butoxy]-3,4-dihydro-2-oxo-1(2H)-quinolinyl]methyl ester]	< 2 µg/mL	< 0.004 µg/mL
